Assay [1] addresses Tyrosine-protein kinase Lck (Homo sapiens, UniProt P06239).
The target of assay [2] is T1, Proto-oncogene tyrosine-protein kinase Src (Homo sapiens, UniProt P12931).
In assay [3] the target is T1, Proto-oncogene tyrosine-protein kinase Src. The experiment in a line: biochemical.
Assay [4] deals with Hepatocyte growth factor receptor (Homo sapiens, UniProt P08581).
Assay [5] deals with Tyrosine-protein kinase Fer (Homo sapiens, UniProt P16591). Briefly: biochemical.
In assay [6] the target is Cyclin-dependent kinase 8 (Homo sapiens, UniProt P49336).
In assay [7] the target is Tyrosine-protein kinase ABL1 (Homo sapiens, UniProt P00519). Briefly: biochemical.
Chain of Tyrosine-protein kinase ABL1 (P00519 whole entry): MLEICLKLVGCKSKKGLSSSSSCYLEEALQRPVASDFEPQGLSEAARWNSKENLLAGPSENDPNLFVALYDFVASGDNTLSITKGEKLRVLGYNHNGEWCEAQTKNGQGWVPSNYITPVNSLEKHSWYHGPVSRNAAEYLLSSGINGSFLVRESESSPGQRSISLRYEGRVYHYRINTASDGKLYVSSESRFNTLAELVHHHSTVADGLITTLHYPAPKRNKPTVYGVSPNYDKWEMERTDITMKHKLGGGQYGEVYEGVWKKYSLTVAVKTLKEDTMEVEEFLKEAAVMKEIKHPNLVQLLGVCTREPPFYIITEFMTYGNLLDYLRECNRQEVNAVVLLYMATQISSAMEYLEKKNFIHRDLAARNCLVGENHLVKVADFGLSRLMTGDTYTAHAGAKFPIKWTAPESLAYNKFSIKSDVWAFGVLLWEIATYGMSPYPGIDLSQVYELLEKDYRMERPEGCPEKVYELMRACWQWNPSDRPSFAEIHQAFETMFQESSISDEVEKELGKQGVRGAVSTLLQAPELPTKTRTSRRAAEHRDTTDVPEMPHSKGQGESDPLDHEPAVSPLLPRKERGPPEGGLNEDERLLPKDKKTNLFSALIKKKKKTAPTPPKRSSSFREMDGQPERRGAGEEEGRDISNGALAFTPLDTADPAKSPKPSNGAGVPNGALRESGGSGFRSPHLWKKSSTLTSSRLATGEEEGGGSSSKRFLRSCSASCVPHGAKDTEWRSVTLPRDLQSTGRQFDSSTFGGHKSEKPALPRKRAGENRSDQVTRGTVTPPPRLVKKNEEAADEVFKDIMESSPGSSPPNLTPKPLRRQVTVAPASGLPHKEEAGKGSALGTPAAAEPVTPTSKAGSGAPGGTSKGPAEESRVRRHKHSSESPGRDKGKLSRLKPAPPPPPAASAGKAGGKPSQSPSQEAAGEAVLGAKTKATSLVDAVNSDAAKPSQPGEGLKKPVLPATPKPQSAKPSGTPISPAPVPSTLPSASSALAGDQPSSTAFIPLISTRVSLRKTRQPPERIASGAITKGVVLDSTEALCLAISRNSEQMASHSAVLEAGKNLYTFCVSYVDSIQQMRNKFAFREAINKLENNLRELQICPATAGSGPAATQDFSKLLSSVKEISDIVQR
For assay [8], the target named is Aurora kinase B (Homo sapiens, UniProt Q96GD4).
Chain of Aurora kinase B (Q96GD4 whole entry): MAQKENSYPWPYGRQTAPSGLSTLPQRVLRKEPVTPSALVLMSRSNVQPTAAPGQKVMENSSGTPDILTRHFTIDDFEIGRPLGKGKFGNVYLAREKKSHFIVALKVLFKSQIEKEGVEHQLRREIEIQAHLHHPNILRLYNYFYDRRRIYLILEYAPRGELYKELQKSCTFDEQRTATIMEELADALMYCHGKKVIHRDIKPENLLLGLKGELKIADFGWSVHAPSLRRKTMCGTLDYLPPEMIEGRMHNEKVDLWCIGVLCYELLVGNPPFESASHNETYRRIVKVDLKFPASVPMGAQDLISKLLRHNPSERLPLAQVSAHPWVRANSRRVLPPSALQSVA
Assay [9] concerns the target T2, Tyrosine-protein kinase Mer (Homo sapiens, UniProt Q12866).
T2 sequence (Q12866 whole entry): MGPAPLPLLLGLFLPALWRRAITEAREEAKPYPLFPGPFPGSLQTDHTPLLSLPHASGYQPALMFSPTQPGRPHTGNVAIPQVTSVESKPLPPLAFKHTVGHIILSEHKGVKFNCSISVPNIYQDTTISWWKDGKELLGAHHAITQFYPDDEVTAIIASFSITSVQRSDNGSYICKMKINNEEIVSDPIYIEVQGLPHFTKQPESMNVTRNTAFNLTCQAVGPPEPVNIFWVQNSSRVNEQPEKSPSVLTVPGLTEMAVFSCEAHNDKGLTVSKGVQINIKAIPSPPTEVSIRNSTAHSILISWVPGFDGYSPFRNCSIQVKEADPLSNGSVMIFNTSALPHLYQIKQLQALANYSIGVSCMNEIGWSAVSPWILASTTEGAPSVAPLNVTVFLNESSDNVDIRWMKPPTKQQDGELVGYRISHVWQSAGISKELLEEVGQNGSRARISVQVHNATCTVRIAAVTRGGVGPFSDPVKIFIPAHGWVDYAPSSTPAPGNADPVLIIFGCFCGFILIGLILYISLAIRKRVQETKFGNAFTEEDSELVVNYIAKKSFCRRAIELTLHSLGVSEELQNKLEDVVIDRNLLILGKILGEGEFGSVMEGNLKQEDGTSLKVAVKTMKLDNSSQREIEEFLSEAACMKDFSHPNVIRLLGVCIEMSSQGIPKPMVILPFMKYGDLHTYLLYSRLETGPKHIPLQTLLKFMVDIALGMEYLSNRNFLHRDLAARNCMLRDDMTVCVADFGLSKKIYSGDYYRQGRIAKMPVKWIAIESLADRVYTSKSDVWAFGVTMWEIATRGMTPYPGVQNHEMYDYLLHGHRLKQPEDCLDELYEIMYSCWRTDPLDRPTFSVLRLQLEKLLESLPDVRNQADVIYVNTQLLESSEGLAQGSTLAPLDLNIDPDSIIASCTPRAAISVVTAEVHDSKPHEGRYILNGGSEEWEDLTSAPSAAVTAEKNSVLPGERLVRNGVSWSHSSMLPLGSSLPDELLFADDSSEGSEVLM

Assay [10] concerns the target T3, Dual specificity mitogen-activated protein kinase kinase 5 (Homo sapiens, UniProt Q13163).
T3 sequence (Q13163 whole entry): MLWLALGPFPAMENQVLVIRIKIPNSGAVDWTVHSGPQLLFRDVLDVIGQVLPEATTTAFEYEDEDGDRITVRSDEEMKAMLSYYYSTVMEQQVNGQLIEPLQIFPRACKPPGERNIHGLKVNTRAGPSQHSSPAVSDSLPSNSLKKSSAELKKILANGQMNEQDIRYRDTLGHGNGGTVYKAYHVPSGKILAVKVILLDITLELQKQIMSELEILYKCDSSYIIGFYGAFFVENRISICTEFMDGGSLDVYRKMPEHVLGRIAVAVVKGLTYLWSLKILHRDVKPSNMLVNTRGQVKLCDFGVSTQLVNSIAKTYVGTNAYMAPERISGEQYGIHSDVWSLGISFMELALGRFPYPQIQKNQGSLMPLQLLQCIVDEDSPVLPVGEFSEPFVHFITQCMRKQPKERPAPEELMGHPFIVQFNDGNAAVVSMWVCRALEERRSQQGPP
Briefly: biochemical.

Assay [11] relates to B16-F10. Briefly: Antitumor activity against mouse B16-F10 cells xenografted in Cbl-b defective mouse assessed as reduction in melanoma metastases at 0.5 mg/L, po administered for 16 days by haematoxylin and eosin staining based microscope analysis. The format is functional, organism-based. The conditions noted are these: time 16.0 day.
The subject of assay [12] is B16-F10. Briefly: Antitumor activity against mouse B16-F10 cells xenografted in Cbl-b+/- mouse assessed as reduction in melanoma metastases in lungs at 0.5 mg/L, po administered for 16 days by haematoxylin and eosin staining based microscope analysis. In kind it is functional, organism-based. The conditions noted are these: time 16.0 day.
The test system of assay [13] is B16-F10. The experiment in a line: Antitumor activity against mouse B16-F10 cells xenografted in Cbl-b+/- mouse assessed as coagulation at 0.5 mg/L, po administered for 16 days by coagulometer analysis. In kind it is functional, organism-based. The settings on record: time 16.0 day.
The subject of assay [14] is RMA-S. The experiment in a line: Cytotoxicity against RMA-S cells overexpressing Rae1 in Cbl-b+/+ mouse by flow cytometry analysis. In kind it is functional, cell-based. On the technique in general: Flow cytometry measures light scatter and fluorescence of single cells or particles in a stream.
For assay [15], the system named is B16-F10. Briefly: Antitumor activity against mouse B16-F10 cells xenografted in Cbl-b+/+ mouse assessed as reduction in melanoma metastases in lungs at 0.5 mg/L, po administered for 16 days by haematoxylin and eosin staining based microscope analysis. The format is functional, organism-based. The conditions noted are these: time 16.0 day.
Assay [16] has as its system B16-F10. The experiment in a line: Antitumor activity against mouse B16-F10 cells xenografted in Cbl-b+/+ mouse assessed as coagulation at 0.5 mg/L, po administered for 16 days by coagulometer analysis. The settings on record: time 16.0 day. In kind it is functional, organism-based.
Assay [17] concerns RMA-S. Briefly: Cytotoxicity against RMA-S cells in Cbl-b+/+ mouse by flow cytometry analysis. In kind it is functional, cell-based.
In assay [18] the test system is 4T1. The experiment in a line: Anticoagulant activity against mouse 4T1 cells xenografted in Balb/c mouse assessed as prothrombin time at 0.5 mg/L, po administered for 16 days by coagulometer analysis (reference value: 15.10 +/- 1.46 sec). The format is functional. The conditions noted are these: time 16 day.

The source made the active and inactive calls. No cut-off for these calls is given here.

T1 sequence (P12931 whole entry, looked up): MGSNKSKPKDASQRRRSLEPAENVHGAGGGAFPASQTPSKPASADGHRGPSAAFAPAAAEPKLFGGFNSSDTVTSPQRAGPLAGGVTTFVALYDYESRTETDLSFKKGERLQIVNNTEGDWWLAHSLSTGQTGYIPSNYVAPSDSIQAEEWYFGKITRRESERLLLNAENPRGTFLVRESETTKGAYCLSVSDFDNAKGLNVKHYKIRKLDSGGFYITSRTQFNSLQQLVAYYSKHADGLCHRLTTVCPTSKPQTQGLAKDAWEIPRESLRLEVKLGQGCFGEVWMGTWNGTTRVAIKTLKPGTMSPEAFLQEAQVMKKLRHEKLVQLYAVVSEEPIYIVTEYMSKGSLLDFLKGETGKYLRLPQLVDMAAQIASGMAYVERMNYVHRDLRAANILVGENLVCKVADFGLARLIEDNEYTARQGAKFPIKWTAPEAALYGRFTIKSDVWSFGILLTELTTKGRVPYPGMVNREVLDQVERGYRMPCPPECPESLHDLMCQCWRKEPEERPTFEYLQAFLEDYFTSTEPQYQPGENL
Chain of Hepatocyte growth factor receptor (P08581 whole entry): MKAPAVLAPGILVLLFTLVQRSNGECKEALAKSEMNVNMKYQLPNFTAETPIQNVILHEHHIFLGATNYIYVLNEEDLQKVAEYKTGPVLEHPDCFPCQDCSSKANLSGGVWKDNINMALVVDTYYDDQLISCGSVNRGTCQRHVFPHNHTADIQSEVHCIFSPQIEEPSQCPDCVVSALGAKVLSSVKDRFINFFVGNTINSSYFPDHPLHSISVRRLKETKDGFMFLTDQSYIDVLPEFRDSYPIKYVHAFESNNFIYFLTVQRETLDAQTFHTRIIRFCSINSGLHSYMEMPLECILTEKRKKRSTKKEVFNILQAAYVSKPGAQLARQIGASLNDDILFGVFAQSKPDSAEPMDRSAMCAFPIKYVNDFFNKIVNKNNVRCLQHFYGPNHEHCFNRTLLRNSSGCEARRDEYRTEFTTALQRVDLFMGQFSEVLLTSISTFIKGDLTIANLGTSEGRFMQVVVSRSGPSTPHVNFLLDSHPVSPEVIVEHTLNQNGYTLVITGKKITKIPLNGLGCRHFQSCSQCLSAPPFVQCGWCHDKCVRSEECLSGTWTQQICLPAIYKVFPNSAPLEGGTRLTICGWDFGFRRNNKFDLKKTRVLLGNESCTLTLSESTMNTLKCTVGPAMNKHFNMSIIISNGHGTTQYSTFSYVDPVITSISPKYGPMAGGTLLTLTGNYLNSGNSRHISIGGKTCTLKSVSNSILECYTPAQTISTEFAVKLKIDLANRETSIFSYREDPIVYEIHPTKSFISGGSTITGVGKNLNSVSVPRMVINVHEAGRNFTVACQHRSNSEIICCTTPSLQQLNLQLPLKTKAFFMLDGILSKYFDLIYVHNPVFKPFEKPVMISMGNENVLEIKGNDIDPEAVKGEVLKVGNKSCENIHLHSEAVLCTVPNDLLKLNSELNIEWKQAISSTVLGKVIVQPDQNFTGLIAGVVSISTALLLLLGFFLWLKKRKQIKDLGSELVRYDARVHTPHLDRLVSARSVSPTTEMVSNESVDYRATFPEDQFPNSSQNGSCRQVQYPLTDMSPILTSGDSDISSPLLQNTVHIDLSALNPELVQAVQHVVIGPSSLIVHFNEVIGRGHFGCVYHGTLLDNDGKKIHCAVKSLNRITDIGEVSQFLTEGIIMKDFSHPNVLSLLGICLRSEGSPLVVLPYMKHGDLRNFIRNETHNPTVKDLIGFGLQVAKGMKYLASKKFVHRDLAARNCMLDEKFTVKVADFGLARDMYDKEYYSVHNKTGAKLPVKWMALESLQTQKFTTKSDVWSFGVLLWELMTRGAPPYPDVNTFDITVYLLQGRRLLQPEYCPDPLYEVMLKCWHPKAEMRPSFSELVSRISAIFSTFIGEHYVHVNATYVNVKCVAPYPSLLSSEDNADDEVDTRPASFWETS
Chain of Tyrosine-protein kinase Lck (P06239 whole entry): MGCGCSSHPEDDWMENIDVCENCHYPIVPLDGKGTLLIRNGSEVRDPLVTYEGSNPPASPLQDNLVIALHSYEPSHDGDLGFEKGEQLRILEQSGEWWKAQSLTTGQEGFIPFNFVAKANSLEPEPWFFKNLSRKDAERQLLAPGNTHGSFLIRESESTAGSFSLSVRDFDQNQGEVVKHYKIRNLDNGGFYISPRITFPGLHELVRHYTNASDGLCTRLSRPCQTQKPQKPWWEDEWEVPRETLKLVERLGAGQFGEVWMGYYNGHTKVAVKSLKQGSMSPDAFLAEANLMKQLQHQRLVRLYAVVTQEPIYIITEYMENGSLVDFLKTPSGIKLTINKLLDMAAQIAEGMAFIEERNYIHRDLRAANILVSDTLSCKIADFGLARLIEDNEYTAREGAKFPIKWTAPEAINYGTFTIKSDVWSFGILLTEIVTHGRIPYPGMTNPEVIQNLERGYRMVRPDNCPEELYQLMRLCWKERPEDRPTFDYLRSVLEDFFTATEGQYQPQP
Chain of Tyrosine-protein kinase Fer (P16591 whole entry): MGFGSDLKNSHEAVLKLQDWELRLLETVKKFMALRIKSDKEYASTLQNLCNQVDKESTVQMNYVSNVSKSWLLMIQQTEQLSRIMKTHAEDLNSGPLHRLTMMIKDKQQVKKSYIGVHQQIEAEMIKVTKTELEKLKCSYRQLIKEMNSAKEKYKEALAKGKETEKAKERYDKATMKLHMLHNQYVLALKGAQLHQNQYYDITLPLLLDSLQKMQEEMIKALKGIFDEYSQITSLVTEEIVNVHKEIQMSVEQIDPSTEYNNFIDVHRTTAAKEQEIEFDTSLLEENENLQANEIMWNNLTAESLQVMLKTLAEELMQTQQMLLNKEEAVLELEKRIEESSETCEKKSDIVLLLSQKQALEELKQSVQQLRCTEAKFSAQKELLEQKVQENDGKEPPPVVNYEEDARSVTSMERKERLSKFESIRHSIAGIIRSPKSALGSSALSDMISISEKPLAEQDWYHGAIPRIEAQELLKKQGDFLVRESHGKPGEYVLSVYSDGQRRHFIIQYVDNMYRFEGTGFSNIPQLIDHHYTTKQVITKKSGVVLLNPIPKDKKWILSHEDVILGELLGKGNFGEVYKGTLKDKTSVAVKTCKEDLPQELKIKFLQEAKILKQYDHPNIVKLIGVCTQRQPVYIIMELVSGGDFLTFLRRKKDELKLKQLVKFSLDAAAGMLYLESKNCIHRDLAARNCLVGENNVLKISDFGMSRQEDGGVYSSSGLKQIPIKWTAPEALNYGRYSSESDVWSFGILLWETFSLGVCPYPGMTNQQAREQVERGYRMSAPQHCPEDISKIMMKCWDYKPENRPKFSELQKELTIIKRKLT

The IC50 is the point on the concentration scale where inhibition reaches its midpoint. Lower therefore signals greater potency in that assay. What is called Kd is a measure of binding affinity in units of concentration. Higher therefore signals lower affinity. For the molecule `CCOc1cn(-c2ccc(F)cc2C)nc1C(=O)Nc1ccc(Oc2ccnc3cc(OC)c(OC)cc23)c(F)c1`, the IC50 in [1] is 51 nM; in assay [2], 338 nM; in [4], 35 nM; in [6], 3170 nM; in assay [8] it was 36 nM; in [9], below 5 nM. The Kd in assay [3] turned out to be 217 nM; in [5], 107 nM; in [7], 154 nM; in assay [10] it was 124 nM.
As for `CC(=O)CC(c1ccccc1)c1c(O)c2ccccc2oc1=O` (stereo not drawn) [WARFARIN], in assay [11], the outcome was inactive. Moreover, the result in [12], in [13], in [14], in [15], in assay [16] and in [17] was Active. The PT in assay [18] is 19.13 s.
